# Earlier results in patent publication US20100028446A1, “TRANSPORT OF DRUGS VIA THE BLOOD-BRAIN BARRIER BY MEANS OF APOLIPOPROTEINS” (priority 2007, published 2010).
# Settings: loaded on hydrophilic-protein nanoparticles coupled with apolipoprotein E
substance,measurement,value
Dalargin,transport across the blood-brain barrier,successfully transported across the blood-brain barrier
